Holding throughout (format): in vivo, nu/nu mice
Data set [1] deals with human SSMC7721 liver cancer xenograft. In words: Antitumor activity of compound 31, SSMC7721 xenograft (Example 53). The conditions noted are these: 40 mg/kg orally once a day for 30 days. As to the method:
(§1) The antitumor activity of compound 31 was measured in human SSMC7721 liver cancer xenograft model. The female nu/nu mice of 18˜20 g were fed by normal diet for 3 days. Then the cultured SSMC7721 human liver cancer cells were implanted into the armpit of 50 mice. […] One group was treated with vehicle. One group was treated with sutent, the positive control drug. […] Each group was dosed orally once a day for 30 days. Tumor volumes as established by caliper measurements were recorded twice per week, along with body weights. At the end of study, the mice were killed, and tumors were weighed. The tumor growth inhibition of each group was calculated using the formula {[(the average tumor weight of vehicle group)−(the average tumor weight of drug group)]/(the average tumor weight of vehicle group)}×100%.

Data set [2] relates to human HCT-8 colon cancer xenograft. The data set is described as follows: Antitumor activity of compounds 33 and 37, HCT-8 xenograft (Example 55). The following applies: 40 mg/kg orally once a day for 20 days. As for the experimental part:
(§2) The antitumor activity of compound 33 and compound 37 were measured in human HCT-8 colon cancer xenograft model. The female nu/nu mice of 18˜20 g were fed by normal diet for 3 days. Then the cultured HCT-8 human colon cancer cells were implanted into the armpit of 50 mice. […] One group was treated with vehicle. One group was treated with sutent, the positive control drug. Two groups were treated with compound 33. The other two groups were treated with compound 37. Compound 33 was administered twice a day with an interval of 6 hours. Other drugs and vehicle were administered once a day. Each group was dosed orally for 20 days. Tumor volumes as established by caliper measurements were recorded twice per week, along with body weights. At the end of study, the mice were killed, and tumors were weighed. The tumor growth inhibition of each group was calculated using the formula {[(the average tumor weight of vehicle group)−(the average tumor weight of drug group)]/(the average tumor weight of vehicle group)}×100%.

Data set [3] in a line: Body weight in A549 xenograft study (Example 51). The conditions noted are these: 40 mg/kg orally once a day for 24 days. As to the method:
The antitumor activity of compound 31 was measured in human A549 lung cancer xenograft model. […] Then the cultured A549 human lung cancer cells were implanted into the armpit of 50 mice. When tumors had reached approximately 6 mm in diameter, the mice were divided into 6 groups randomly. Each group has 8 mice. One group was treated with vehicle. One group was treated with sutent, the positive control drug. […] Each group was dosed orally once a day for 24 days. Tumor volumes as established by caliper measurements were recorded twice per week, along with body weights. At the end of study, the mice were killed, and tumors were weighed. The tumor growth inhibition of each group was calculated using the formula {[(the average tumor weight of vehicle group)-(the average tumor weight of drug group)]/(the average tumor weight of vehicle group)}×100%.

Data set [4] in a line: Body weight in HCT-8 xenograft study (Example 52). The following applies: 40 mg/kg orally once a day for 20 days. As for the experimental part: The antitumor activity of compound 31 was measured in human HCT-8 colon cancer xenograft model. The female nu/nu mice of 18˜20 g were fed by normal diet for 3 days. Then the cultured HCT-8 human colon cancer cells were implanted into the armpit of 50 mice. When tumors had reached approximately 100 mm^3, the mice were divided into 6 groups randomly. Each group has 8 mice. One group was treated with vehicle. One group was treated with sutent, the positive control drug. […] Each group was dosed orally once a day for 20 days. Tumor volumes as established by caliper measurements were recorded twice per week, along with body weights. At the end of study, the mice were killed, and tumors were weighed. The tumor growth inhibition of each group was calculated using the formula {[(the average tumor weight of vehicle group)−(the average tumor weight of drug group)]/(the average tumor weight of vehicle group)}×100%.

The nature of data set [5]: Body weight in SSMC7721 xenograft study (Example 53). The conditions noted are these: 40 mg/kg orally once a day for 30 days. As to the method:
as §1

The nature of data set [6]: Body weight in HCT-8 xenograft study (Example 54). The conditions noted are these: 40 mg/kg orally once a day for 20 days. As to the method: The antitumor activity of compound 33 and compound 34 were measured in human HCT-8 colon cancer xenograft model. The female nu/nu mice of 18˜20 g were fed by normal diet for 3 days. Then the cultured HCT-8 human colon cancer cells were implanted into the armpit of 50 mice. When tumors had reached approximately 100 mm^3, the mice were divided into 6 groups randomly. Each group has 8 mice. One group was treated with vehicle. One group was treated with sutent, the positive control drug. Two groups were treated with compound 33. The other two groups were treated with compound 34. Each group was dosed orally once a day for 20 days. Tumor volumes as established by caliper measurements were recorded twice per week, along with body weights. At the end of study, the mice were killed, and tumors were weighed. The tumor growth inhibition of each group was calculated using the formula {[(the average tumor weight of vehicle group)−(the average tumor weight of drug group)]/(the average tumor weight of vehicle group)}×100%.

Data set [7] in a line: Body weight in HCT-8 xenograft study (Example 55). The following applies: 40 mg/kg orally once a day for 20 days. As to the method: as §2
Data set [8] in a line: Body weight in SSMC7721 xenograft study (Example 56). The conditions noted are these: 40 mg/kg orally once a day for 30 days. As for the experimental part: The antitumor activity of compound 33 and compound 37 were measured in human SSMC7721 liver cancer xenograft model. The female nu/nu mice of 18˜20 g were fed by normal diet for 3 days. Then the cultured SSMC7721 human liver cancer cells were implanted into the armpit of 50 mice. […] Each group has 8 mice. One group was treated with vehicle. One group was treated with sutent, the positive control drug. Two groups were treated with compound 33. The other two groups were treated with compound 37. Each group was dosed orally once a day for 30 days. Tumor volumes as established by caliper measurements were recorded twice per week, along with body weights. At the end of study, the mice were killed, and tumors were weighed. The tumor growth inhibition of each group was calculated using the formula {[(the average tumor weight of vehicle group)−(the average tumor weight of drug group)]/(the average tumor weight of vehicle group)}×100%.

The text below walks through data of patent US8211901B2, “Naphthamide derivatives as multi-target protein kinase inhibitors and histone deacetylase inhibitors” (Shenzhen Chipscreen Biosciences Ltd., priority 2009, dated 2012).

`CCN(CC)CCNC(=O)c1c(C)[nH]c(/C=C2\C(=O)Nc3ccc(F)cc32)c1C` [Sutent, reference compound]: the “TGI (%) Tumor growth inhibition” value was 70.3% in data set [1] and 95.3% in data set [2]. For the same molecule, the “Tumor weight” value in data set [1] is 1.00 ± 0.68 g. In addition, the “Body weight (g) end” value in data set [3] (end) turned out to be 24.4 ± 2.3 g; in data set [4] (end), 22.4 ± 1.1 g; in data set [5] (end), 24.8 ± 1.2 g; in data set [6] (end), 22.1 ± 1.5 g; in data set [7] (end), 23.7 ± 0.8 g; in data set [8] (end), 24.0 ± 0.6 g. In addition, the “Body weight (g) start” value came out at 20.3 ± 1.4 g in data set [3] (start); 21.5 ± 0.7 g in data set [4] (start); 21.0 ± 0.8 g in data set [5] (start); 20.6 ± 1.2 g in data set [6] (start); 21.3 ± 0.6 g in data set [7] (start); 21.2 ± 1.1 g in data set [8] (start).
